This note sets out measurements from PMC7583046, “The Paralogue of the Intrinsically Disordered Nuclear Protein 1 Has a Nuclear Localization Sequence that Binds to Human Importin α3” (International Journal of Molecular Sciences, 2020).

“Also recorded” adds a separate entry of the source.

The test system of data set [1] is Impα3. The settings on record: 35 μM peptide, pH 7.2, 50 mM deuterated Tris, 1-1 echo sequence. As to the method: The NMR experiments were acquired at 283 K on a Bruker Avance spectrometer (Bruker GmbH, Karlsruhe, Germany), equipped with a triple resonance probe and z-pulse field gradients. All experiments with NLS-NUPR1L were carried out at pH 7.2, 50 mM deuterated Tris buffer (not corrected for isotope effects). The spectra were calibrated with TSP ((trimethylsilyl)-2,2,3,3-tetradeuteropropionic acid), by considering pH-dependent changes of its chemical-shifts; probe temperature was calibrated with methanol.
Measurements of the T2 (transverse relaxation time) provide a convenient method to determine the molecular mass of a macromolecule, as the correlation time, τc, is approximately equal to 1/(5 × T2). We measured the T2 of one of the indole protons (Section 2.2.1) for NLS-NUPR1L (at 35 μM concentration) in isolation and in the presence of Impα3 (at a final concentration of 7 μM) with the 1-1 echo sequence. The calculation of the T2 was carried out as described.

The next data set relates to ∆Impα3. The settings on record: 50 mM phosphate pH 7.0, 298 K; NUPR1L 15 μM with importin 5 μM, or NLS-NUPR1L 10 μM with importin 4 μM. As to the method: (§1) Fluorescence spectra were collected on a Cary Varian spectrofluorometer (Agilent, Santa Clara, CA, USA), interfaced with a Peltier unit. All experiments were carried out at 298 K. Following the standard protocols used in our laboratories, the samples were prepared the day before and left overnight at 278 K; before experiments, samples were left for 1 h at 298 K. A 1 cm pathlength quartz cell (Hellma, Kruibeke, Belgium) was used. The concentration of NLS-NUPR1L was 10 μM and those of both importins were 4 μM. Samples containing the isolated peptide, the isolated importin species, and a mixture of both (at those indicated concentrations) were prepared. Experiments were acquired in 50 mM phosphate buffer (pH 7.0). For the experiments with intact NUPR1L, a concentration of 15 μM (in protomer units) was used and that of each importin was 5 μM.
(§2) Protein samples were excited either at 280 or 295 nm. The other experimental parameters and the buffers used have been described elsewhere. […]
(§3) Far-UV CD spectra were collected on a Jasco J810 spectropolarimeter (Jasco, Tokyo, Japan) with a thermostated cell holder, and interfaced with a Peltier unit at 298 K. The instrument was periodically calibrated with (+)-10-camphorsulphonic acid. […] The concentration of each polypeptide (importin species and either NLS-NUPR1L or intact NUPR1L) was the same as that used in the fluorescence experiments (Section 4.4). […]

The test system of data set [2] is Impα3. The settings on record: 50 mM phosphate pH 7.0, 298 K; NLS-NUPR1L 10 μM, importin 4 μM. As for the experimental part:
as §1, §2, §3

Data set [3] is described as follows: Conformation of isolated peptide by fluorescence, far-UV CD and NMR. The class given is physicochemical. As for the experimental part:
Appropriate blank corrections were made in all spectra.
All spectra were corrected by subtracting the corresponding baseline.
An amount of 128 scans was acquired with 16 K acquisition points for the homonuclear 1D-^1H-NMR spectrum, and using a peptide concentration of 1.0–1.2 mM. Water signal was suppressed using the WATERGATE sequence. The spectrum was processed with Bruker TopSpin 2.1 (Bruker GmbH, Karlsruhe, Germany), after zero-filling and apodization with an exponential window.
Two-dimensional spectra were acquired in each dimension in the phase-sensitive mode using the time-proportional-phase incrementation technique (TPPI) and a spectral width of 7801.69 Hz; the final concentration of the NLS-NUPR1L was the same as that used in the 1D experiments. Standard TOCSY (Total correlation spectroscopy) (with a mixing time of 80 ms) and NOESY experiments (with a mixing time of 250 ms) were performed by acquiring a data matrix size of 4096 × 512 points. The DIPSI (decoupling in the presence of scalar interactions) spin-lock sequence was used in the TOCSY experiments with 1 s of relaxation time. Typically, 96 scans were acquired per increment in the first dimension, and the residual water signal was removed using the WATERGATE sequence. NOESY spectra were collected typically with 96 scans per increment in the first dimension, with the residual water signal removed again by the WATERGATE sequence, and with 1 s of relaxation time. Data were zero-filled, resolution-enhanced with a square sine-bell window function optimized in each spectrum, baseline-corrected, and processed with the Bruker TopSpin 2.1 software (Bruker GmbH, Karlsruhe, Germany). The ^1H resonances were assigned by standard sequential assignment processes. The chemical shift values of Hα protons in random-coil regions were obtained from tabulated data, corrected by neighbouring residue effects.

With “Ac-RTRREQALRTNWPAPGGHERKVAQ-NH2 [NLS-NUPR1L]”, in the data set on Impα3 [1] (7 μM Impα3, 283 K), the “T2 of most up-field indole signal, in the presence of Impα3” value worked out at 36.7 ms. Besides, the “T2 of most up-field indole signal, isolated peptide” value with Impα3 [1] (283 K) is 62.2 ms. In addition, the “spectral changes upon binding to ∆Impα3 (fluorescence and/or far-UV CD)” value in the data set on ∆Impα3 is “there were changes in the spectra upon addition of NLS-NUPR1L to each of the importin species”. In addition, the “spectral changes upon binding to Impα3 (fluorescence and CD)” value in the data set on Impα3 [2] is recorded as “there were changes in the spectra upon addition of NLS-NUPR1L to each of the importin species”. Also, the “far-UV CD minimum” value in data set [3] (298 K, 50 mM phosphate pH 7.0) is on record as ~ 203 nm. This substance returned a fluorescence emission maximum in data set [3] (excitation 280 nm, 50 mM phosphate pH 7.0, 298 K) of 353 nm. In addition, the “conformation in aqueous solution” value in data set [3] (fluorescence, far-UV CD and NMR) was “random-coil conformation; also recorded: disordered in aqueous solution; also recorded: did not have any propensity to acquire helix- or turn-like conformations”.
